Test results from patent publication US20250326767A1, “NOVEL BENZOTHIAZOLE DERIVATIVES” (CARNA BIOSCIENCES, INC., priority 2021, published 2025).

How the values were obtained:
Assay in all cases: Inhibition test on activity of DYRK family, mobility shift assay (MSA)
Type in all cases: biochemical
[1] = molecular target: T1, DYRK1A (Homo sapiens, UniProt Q13627); settings: ATP 100 μM; FITC-labeled DYRKtide peptide substrate; room temperature 1 hour; read-out: Inhibitory Activity DYRK1A (IC50 class)
T1 construct: purchased Carna Biosciences, Inc. 04-130
Protocol: (§1) The kinase activity was measured by mobility shift assay (MSA) method using QuickScout Screening Assist™ MSA (commercially available kit manufactured by Carna Biosciences, Inc.). The substrate of the kinase reaction used was an FITC-labeled DYRKtide peptide included in the kit. An assay buffer [20 mM HEPES, 0.01% Triton X-100™, 2 mM dithiothreitol, pH 7.5] was used to create a substrate mixture solution with a substrate (4 μM), MgCl2 (20 mM), and ATP (DYRK1A: 100 μM; DYRKIB: 200 μM; DYRK2:40 μM; and DYRK3:20 μM). In addition, kinases (DYRK1A: manufactured by Carna Biosciences, Inc., Cat. No. 04-130; DYRK1B: manufactured by Carna Biosciences, Inc., Cat. No. 04-131; DYRK2; manufactured by Carna Biosciences, Inc., Cat. No. 04-132; and DYRK3; manufactured by Carna Biosciences, Inc., Cat. No. 04-133) were diluted with the assay buffer to prepare enzyme solutions (DYRK1A: 0.2 ng/μL; DYRK1B: 0.08 ng/μL; DYRK2: 0.04 ng/μL; and DYRK3:0.25 ng/μL). The 10 mM solution of the test compound in DMSO was further diluted with DMSO to 10 levels of the concentration (0.00003 mM, 0.0001 mM, 0.0003 mM, 0.001 mM, 0.003 mM, 0.01 mM, 0.03 mM, 0.1 mM, 0.3 mM, and 1 mM), each of which was subjected to 25-fold dilution with the assay buffer to obtain a drug solution (4% DMSO solution). 5 μL of the drug solution or a control solution (4% DMSO-assay buffer), 5 μL of the substrate mixture solution, and 10 μL of the enzyme solution were mixed in the wells of a polypropylene 384-well plate and allowed to react at room temperature for 1 hour, and then the reaction was quenched by adding 60 μL of the termination buffer included in the kit. Subsequently, the quantities of the substrates(S) and the phosphorylated substrate (P) in the reaction solution were measured using LabChip EZ Reader II system (manufactured by Caliper Life Sciences) according to the protocol of the assay kit.
(§2) The heights of the peaks of the “substrate” and the “phosphorylated substrate” were expressed as S and P, respectively, and a blank containing the assay buffer instead of the enzyme solution was also measured.
(§3) The inhibition rate (%) of the test compound was calculated according to the following equation: […]
(§4) wherein, A, B, and C represent P/(P+S) of the blank well, P/(P+S) of the control solution well, and P/(P+S) of the compound-containing well, respectively.
(§5) The IC50 value was calculated via a regression analysis of the inhibition rate and the test compound concentration (logarithmic value).

[2] = molecular target: T2, DYRK1B (Homo sapiens, UniProt Q9Y463); settings: ATP 200 μM; FITC-labeled DYRKtide peptide substrate; room temperature 1 hour; read-out: Inhibitory Activity DYRK1B (IC50 class)
T2 construct: purchased Carna Biosciences, Inc. 04-131
T2 sequence (Q9Y463 whole entry): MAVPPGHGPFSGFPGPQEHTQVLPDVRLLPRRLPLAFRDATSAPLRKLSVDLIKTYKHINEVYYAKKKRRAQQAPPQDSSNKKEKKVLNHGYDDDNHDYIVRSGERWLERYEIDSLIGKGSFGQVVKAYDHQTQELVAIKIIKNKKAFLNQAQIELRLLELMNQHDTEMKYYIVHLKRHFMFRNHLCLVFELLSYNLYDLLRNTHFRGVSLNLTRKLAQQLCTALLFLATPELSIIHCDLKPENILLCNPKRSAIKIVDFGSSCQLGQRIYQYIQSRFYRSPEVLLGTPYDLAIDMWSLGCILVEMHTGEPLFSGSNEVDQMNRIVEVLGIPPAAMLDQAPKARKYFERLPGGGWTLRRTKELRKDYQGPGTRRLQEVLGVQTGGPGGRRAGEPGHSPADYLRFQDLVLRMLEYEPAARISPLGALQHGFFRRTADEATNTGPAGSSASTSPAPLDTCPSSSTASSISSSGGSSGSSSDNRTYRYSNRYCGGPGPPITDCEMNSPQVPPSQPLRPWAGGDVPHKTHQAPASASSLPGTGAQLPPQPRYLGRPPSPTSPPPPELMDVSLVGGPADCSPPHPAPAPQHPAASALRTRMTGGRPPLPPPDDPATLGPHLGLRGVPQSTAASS
Protocol: as §1, §2, §3, §4, §5

[3] = molecular target: T3, DYRK2 (Homo sapiens, UniProt Q92630); settings: ATP 40 μM; FITC-labeled DYRKtide peptide substrate; room temperature 1 hour; read-out: Inhibitory Activity DYRK2 (IC50 class)
T3 construct: purchased Carna Biosciences, Inc. 04-132
T3 sequence (Q92630 1-601): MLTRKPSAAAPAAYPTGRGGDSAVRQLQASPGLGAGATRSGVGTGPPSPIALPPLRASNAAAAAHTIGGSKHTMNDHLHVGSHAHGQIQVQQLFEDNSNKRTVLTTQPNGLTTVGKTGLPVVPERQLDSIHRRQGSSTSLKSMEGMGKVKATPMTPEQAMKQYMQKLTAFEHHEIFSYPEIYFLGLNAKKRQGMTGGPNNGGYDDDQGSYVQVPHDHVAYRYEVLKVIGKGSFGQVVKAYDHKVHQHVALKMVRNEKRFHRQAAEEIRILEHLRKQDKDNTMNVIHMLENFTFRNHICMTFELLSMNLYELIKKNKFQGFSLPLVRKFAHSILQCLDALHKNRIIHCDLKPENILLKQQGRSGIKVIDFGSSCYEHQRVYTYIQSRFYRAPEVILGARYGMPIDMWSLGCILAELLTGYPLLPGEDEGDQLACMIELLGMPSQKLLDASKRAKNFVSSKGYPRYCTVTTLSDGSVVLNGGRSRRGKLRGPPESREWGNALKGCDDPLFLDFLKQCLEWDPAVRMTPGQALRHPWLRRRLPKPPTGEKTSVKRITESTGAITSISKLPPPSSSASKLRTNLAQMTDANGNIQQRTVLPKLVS
Protocol: as §1, §2, §3, §4, §5

[4] = molecular target: T4, DYRK3 (Homo sapiens, UniProt O43781); settings: ATP 20 μM; FITC-labeled DYRKtide peptide substrate; room temperature 1 hour; read-out: Inhibitory Activity DYRK3 (IC50 class)
T4 construct: purchased Carna Biosciences, Inc. 04-133
T4 sequence (O43781 1-588): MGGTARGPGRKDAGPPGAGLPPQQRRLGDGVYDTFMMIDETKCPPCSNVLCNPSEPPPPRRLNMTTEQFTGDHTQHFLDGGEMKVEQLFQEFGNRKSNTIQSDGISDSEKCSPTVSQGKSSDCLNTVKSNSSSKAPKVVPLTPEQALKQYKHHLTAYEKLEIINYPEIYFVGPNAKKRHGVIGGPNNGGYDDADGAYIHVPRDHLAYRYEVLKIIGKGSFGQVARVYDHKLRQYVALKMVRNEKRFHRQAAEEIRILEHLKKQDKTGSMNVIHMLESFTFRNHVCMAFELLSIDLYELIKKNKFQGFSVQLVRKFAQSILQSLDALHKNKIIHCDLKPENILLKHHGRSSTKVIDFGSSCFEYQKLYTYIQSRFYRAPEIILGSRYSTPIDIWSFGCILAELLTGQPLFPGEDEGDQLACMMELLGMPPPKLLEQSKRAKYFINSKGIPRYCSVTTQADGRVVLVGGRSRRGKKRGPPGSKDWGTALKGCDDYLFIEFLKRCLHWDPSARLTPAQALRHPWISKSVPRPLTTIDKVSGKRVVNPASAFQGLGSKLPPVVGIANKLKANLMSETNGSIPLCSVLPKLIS
Protocol: as §1, §2, §3, §4, §5

CC#CC1C[C@H](C)NC(=O)N1c1nc2c3c(ccc2s1)OCC3 (stereo in doubt) [Example 17, (4S,6R)-1-(7,8-dihydrobenzofuro[4,5-d]thiazol-2-yl)-4-methyl-6-(prop-1-yn-1-yl)tetrahydropyrimidin-2(1H)-one]
IC50 [1]: 10 to 100 nM | IC50 [2]: 10 to 100 nM | IC50 [3]: > 1000 nM | IC50 [4]: > 1000 nM

CC#C[C@H]1C[C@@H](C)NC(=O)N1c1nc2c3c(ccc2s1)OCC3 [Example 14, (4R,6R)-1-(7,8-dihydrobenzofuro[4,5-d]thiazol-2-yl)-4-methyl-6-(prop-1-yn-1-yl)tetrahydropyrimidin-2(1H)-one]
IC50 [1]: > 1000 nM | IC50 [2]: > 1000 nM | IC50 [3]: > 1000 nM | IC50 [4]: > 1000 nM

CC#CC1C[C@H](C)NC(=O)N1c1nc2c3c(ccc2s1)OCC3 (stereo in doubt) [Example 16, (4S,6S)-1-(7,8-dihydrobenzofuro[4,5-d]thiazol-2-yl)-4-methyl-6-(prop-1-yn-1-yl)tetrahydropyrimidin-2(1H)-one]
IC50 [1]: > 1000 nM | IC50 [2]: > 1000 nM | IC50 [3]: > 1000 nM | IC50 [4]: > 1000 nM

CC#C[C@H]1[C@@H](C)CNC(=O)N1c1nc2c3c(ccc2s1)OCC3 (stereo in doubt) [Example 12, (5S*,6R*)-1-(7,8-dihydrobenzofuro[4,5-d]thiazol-2-yl)-5-methyl-6-(prop-1-yn-1-yl)tetrahydropyrimidin-2(1H)-one]
IC50 [2]: 100 to 1000 nM | IC50 [3]: > 1000 nM | IC50 [4]: > 1000 nM

CC#CC1CCNC(=O)N1c1nc2c3c(ccc2s1)OCCO3 (single isomer, unassigned) [Example 5, 1-(7,8-dihydro-[1,4]dioxyno[2′,3′:5,6]benzo[1,2-d]thiazol-2-yl)-6-(prop-1-yn-1-yl)tetrahydropyrimidin-2(1H)-one]
IC50 [1]: < 10 nM | IC50 [2]: < 10 nM | IC50 [3]: 100 to 1000 nM | IC50 [4]: 100 to 1000 nM

CC#C[C@@H]1C[C@@H](C)NC(=O)N1c1nc2c3c(ccc2s1)OCC3 [Example 15, (4R,6S)-1-(7,8-dihydrobenzofuro[4,5-d]thiazol-2-yl)-4-methyl-6-(prop-1-yn-1-yl)tetrahydropyrimidin-2(1H)-one]
IC50 [1]: 10 to 100 nM | IC50 [2]: 10 to 100 nM | IC50 [3]: > 1000 nM | IC50 [4]: > 1000 nM
